Read-outs that look alike come from different tables or passages of the source.
What was measured:
human subjects = test: "Difference from Reference" human taste test (sweetness); type: in vivo
Source text: To determine how the intensity of a test sample of an experimental compound differs from that of a reference sample in terms of sweetness. This type of study requires a larger panel (typically 15-20 Subjects) in order to obtain statistically significant data.
Subjects rate the difference in intensity of the test sample compared to the reference sample for the key attribute on a scale of −5 (much less sweet than the reference) to +5 (much more sweet than the reference). A score of 0 indicates the test sample is equally as sweet as the reference.
Ten or more Subjects are used for the “Difference from Reference” tests. Subjects have been previously familiarized with the key attribute taste and are trained to use the −5 to +5 scale. Subjects refrain from eating or drinking (except water) for at least 1 hour prior to the test. Subjects eat a cracker and rinse with water four times to clean the mouth.
Test solutions can include the experimental compound in water, the experimental compound plus a key tastant (e.g., 4% sucrose, 6% sucrose, 6% fructose, 6% fructose/glucose, or 7% fructose/glucose, at pH 7.1 or 2.8), and a range of key tastant only solutions as references.
Samples of the key tastant without the experimental compound are used to determine if the panel is rating accurately; i.e., the reference is tested against itself (blind) to determine how accurate the panel is rating on a given test day. The solutions are dispensed in 10 ml volumes into 1 oz. sample cups and served to the Subjects at room temperature.
Subjects first taste the reference sample then immediately taste the test sample and rate the difference in intensity of the key attribute on the Difference from Reference scale (−5 to +5). All samples are expectorated. Subjects may retaste the samples but can only use the volume of sample given. Subjects must rinse at least twice with water between pairs of samples. Eating a cracker between sample pairs may be required depending on the samples tasted.
The scores for each test are averaged across Subjects and standard error is calculated. Panel accuracy can be determined using the score from the blind reference test. ANOVA and multiple comparison tests (such as Tukey's Honestly Significant Difference test) can be used to determine differences among pairs, provided the reference sample is the same among all tests. If the identical test pair is tested in another session, a Student's t-test (paired, two-tailed; alpha=0.05) can be used to determine if there is any difference in the ratings between sessions.
A number of different reference sweeteners have been utilized for the measurement of sweet taste enhancement. […]

[1] = biological target: T1, hT1R2/hT1R3 sweet receptor (Homo sapiens, UniProt Q7RTX0+Q8TE23); test: In vitro hT1R2/hT1R3 sweet taste receptor activation assay (FLIPR, dose response); type: cell-based
T1 construct: expressed in transfected cells; host or cells: HEK293 derivative stably expressing Gα15, clone S-9
T1 sequence (Q8TE23 20-839): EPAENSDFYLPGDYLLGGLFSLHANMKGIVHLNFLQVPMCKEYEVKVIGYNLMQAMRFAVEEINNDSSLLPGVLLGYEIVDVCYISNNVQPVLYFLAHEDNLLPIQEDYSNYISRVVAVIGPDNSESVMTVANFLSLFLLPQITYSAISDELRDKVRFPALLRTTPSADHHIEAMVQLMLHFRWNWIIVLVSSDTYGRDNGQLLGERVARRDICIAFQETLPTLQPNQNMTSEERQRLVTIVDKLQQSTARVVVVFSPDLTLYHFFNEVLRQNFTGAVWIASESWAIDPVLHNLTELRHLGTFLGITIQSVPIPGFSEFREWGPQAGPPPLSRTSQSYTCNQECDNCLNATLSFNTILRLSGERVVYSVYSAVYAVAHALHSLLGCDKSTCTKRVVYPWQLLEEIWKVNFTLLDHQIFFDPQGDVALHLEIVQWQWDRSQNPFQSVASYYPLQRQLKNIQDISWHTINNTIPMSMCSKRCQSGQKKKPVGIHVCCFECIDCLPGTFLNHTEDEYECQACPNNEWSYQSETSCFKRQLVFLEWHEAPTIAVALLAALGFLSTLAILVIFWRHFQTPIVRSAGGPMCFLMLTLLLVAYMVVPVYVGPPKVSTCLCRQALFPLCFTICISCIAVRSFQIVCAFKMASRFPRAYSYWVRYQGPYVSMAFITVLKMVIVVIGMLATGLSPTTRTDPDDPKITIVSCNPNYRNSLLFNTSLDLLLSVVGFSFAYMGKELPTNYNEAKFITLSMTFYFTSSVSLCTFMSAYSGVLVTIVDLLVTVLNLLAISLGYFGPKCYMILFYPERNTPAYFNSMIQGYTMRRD
T1 sequence (Q7RTX0 21-852): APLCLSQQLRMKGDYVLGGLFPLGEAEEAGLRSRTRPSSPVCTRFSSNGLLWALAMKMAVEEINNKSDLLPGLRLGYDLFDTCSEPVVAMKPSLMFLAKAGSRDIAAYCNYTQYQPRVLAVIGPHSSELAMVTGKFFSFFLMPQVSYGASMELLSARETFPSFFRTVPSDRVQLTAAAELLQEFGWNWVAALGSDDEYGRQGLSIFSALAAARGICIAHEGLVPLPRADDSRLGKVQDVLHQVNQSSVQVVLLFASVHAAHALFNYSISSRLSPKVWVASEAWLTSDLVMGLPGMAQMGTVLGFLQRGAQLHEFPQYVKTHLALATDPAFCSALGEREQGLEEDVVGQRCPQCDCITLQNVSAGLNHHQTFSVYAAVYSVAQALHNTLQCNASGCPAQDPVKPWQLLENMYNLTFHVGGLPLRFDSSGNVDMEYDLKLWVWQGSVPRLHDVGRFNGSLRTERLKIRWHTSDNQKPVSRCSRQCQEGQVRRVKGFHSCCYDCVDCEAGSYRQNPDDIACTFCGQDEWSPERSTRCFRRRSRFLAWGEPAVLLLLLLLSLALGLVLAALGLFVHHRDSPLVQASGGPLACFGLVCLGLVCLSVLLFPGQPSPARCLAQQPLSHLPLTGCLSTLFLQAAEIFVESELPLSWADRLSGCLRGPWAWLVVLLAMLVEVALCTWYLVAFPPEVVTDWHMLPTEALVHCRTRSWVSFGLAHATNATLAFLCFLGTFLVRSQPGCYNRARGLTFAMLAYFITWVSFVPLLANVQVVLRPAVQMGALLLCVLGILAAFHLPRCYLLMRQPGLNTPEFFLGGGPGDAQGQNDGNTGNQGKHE
Summary of the method: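 Dose-response at 10 concentrations (60 nM–30 µM, duplicates) measured as Fluo-3AM calcium fluorescence on FLIPR in hT1R2/hT1R3 S-9 cells, in D-PBS at room temperature. Responses scaled to 400 mM D-fructose. EC50s from regression with all curve parameters floating.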

[2] = biological target: T2, hT1R1/hT1R3 umami receptor (Homo sapiens, UniProt Q7RTX0+Q7RTX1); test: Umami taste enhancement assay: shift of the MSG EC50 (EC50 ratio vs. MSG); type: cell-based; settings: Table E
T2 construct: expressed in transfected cells; host or cells: HEK293 derivative stably expressing Gα15, clone I-17, expression induced with mifepristone
T2 sequence (Q7RTX1 21-841): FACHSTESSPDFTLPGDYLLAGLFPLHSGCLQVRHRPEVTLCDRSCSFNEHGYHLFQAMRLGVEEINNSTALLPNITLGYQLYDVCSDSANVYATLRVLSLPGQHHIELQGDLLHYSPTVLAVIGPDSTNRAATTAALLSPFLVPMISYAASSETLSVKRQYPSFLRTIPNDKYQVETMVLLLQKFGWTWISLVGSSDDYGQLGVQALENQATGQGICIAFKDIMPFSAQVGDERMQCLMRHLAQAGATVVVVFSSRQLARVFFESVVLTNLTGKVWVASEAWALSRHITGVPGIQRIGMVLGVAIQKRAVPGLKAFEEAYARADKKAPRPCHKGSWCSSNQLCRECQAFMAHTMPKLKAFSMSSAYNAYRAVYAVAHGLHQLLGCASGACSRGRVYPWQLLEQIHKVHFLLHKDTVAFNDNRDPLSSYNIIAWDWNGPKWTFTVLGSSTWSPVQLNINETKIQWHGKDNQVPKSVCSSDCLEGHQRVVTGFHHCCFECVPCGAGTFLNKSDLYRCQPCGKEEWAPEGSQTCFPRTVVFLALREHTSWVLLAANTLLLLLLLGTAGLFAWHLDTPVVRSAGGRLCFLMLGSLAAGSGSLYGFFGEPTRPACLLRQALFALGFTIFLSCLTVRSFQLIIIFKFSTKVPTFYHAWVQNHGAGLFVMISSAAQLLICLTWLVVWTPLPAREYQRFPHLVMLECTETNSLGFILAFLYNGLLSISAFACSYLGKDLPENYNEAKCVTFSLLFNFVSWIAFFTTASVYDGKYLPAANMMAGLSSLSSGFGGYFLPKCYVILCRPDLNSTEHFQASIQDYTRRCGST
T2 sequence (Q7RTX0 21-852): T1 sequence (Q7RTX0 21-852)
Procedure: A series of measurements of the dose response is run in solutions comprising MSG alone, then a second dose response is run with MSG in combination with predetermined amounts of a candidate compound of Formula (I) at the same time.
Typical compound concentrations tested were 30 μM, 10 μM, 3 μM, 1 μM, 0.3 μM, 0.1 μM and 0.03 μM. The relative efficacy of compounds of Formula (I) at enhancing the receptor was determined by calculating the magnitude of a shift in the EC50 for monosodium glutamate. Enhancement was defined as a ratio (EC50R) corresponding to the EC50 of monosodium glutamate, determined in the absence of the test compound, divided by the EC50 of monosodium glutamate, determined in the presence of the test compound.
Stated alternatively, “EC50 ratio” as compared to MSG is calculated based on the following definitions: EC50 Ratio vs. MSG=EC50 (MSG)/EC50 (MSG+[Compound]) • wherein “[compound]” refers to the concentration of the compound of Formula (I) used to elicit (or enhance or potentiate) the MSG dose response.

[3] = read-out: EC50 for activation of a hT1R2/hT1R3 sweet receptor expressed in an HEK293 cell line

Question: What does the source list for `Cc1nocc1C(=O)N[C@@H]1CCCc2ccccc21` [Example 175, 3-Methyl-isoxazole-4-carboxylic acid (1,2,3,4-tetrahydro-naphthalen-1-yl)-amide]?
Answer: Perceived Equivalent Sweet Solution (human subjects; 50 μM compound + 4% sucrose, pH not measured or controlled): 6% sucrose; EC50 [1, 3]: 5800 nM

Question: Which “Perceived Equivalent Sweet Solution” value (human subjects; 10 μM compound + 7% fructose/glucose, pH 2.8) does the source give for `Cc1cc(C)c2c(c1)[C@H](NC(=O)c1conc1C)CCC2` [Example 176, (R)—N—(5,7-Dimethyl-1,2,3,4-tetrahydronaphthalen-1-yl)-3-methylisoxazole-4-carboxamide] here?
Answer: Equal to 10.5% fructose/glucose

Question: And the “Perceived Equivalent Sweet Solution” value (human subjects; 10 μM compound + 7% fructose/glucose, pH 7.1)?
Answer: Equal to 10% fructose/glucose

Question: What about the EC50 [1, 3] of the same compound?
Answer: 520 nM

Question: What about the melting point of the same compound?
Answer: 124 to 125 °C

Question: Which “Perceived Equivalent Sweet Solution” value (human subjects; 3 μM compound + 6% fructose/glucose, pH 7.1) does the source give for `COc1cccc2c1CCC[C@H]2NC(=O)c1cccc(Cl)c1O` [Example 177, (R)-3-Chloro-2-hydroxy-N-(5-methoxy-1,2,3,4-tetrahydronaphthalen-1-yl) benzamide] here?
Answer: Equal to 10% fructose/glucose

Question: And the EC50 [1, 3]?
Answer: 180 nM

Question: What about the melting point of the same compound?
Answer: 175 to 176 °C

Question: For `O=C(N[C@@H]1CCc2ccccc21)c1cccc(Cl)c1O` [Example E127, (R)-3-chloro-N-(2,3-dihydro-1H-inden-1-yl)-2-hydroxybenzamide], which EC50 ([1]; Table E, Sweet Enhancer Amides, read-out: Sweet EC50) is on record?
Answer: 950 nM

Question: And the “Umami EC50 ratio” value [2]?
Answer: 2.81 (10 M cpd)

Source: patent US20060045953A1 (priority 2004, published 2006)
